Results on one compound are retold here after patent publication US4136186A, “Thieno[3,2-c]pyridine derivatives” (Parcor, priority 1976, dated 1979).

Where two headings read alike, the source gives them in different places.

Assay [1] relates to carrageenin-induced edema. The assay can be described thus: Localised carrageenin-induced edema method. Format: in vivo. Conditions: Rattus norvegicus, rats, oral 100 mg/kg at -1, 0, 1 and 2.5 hours. As to the method: (a) Localised carrageenin-induced edema method: A 1% carrageenin solution (0.1 ml) is injected in the metatarsal flexor muscles of the right hind limb of rats at time 0. The animals of the treated group are additionally administered orally 100 mg/kg of the test derivative, respectively one hour prior to and then simultaneously with the phlogogenic agent, and then one hour and 2.5 hours thereafter. The percent antiinflammatory activity, as a function of time, is determined with respect to the control group by measurements effected with a ROCH micrometer at times 0, one hour, two hours, three hours and five hours after carrageenin administration.
Background: Carrageenan injected into the paw causes an acute inflammation.

Assay [2] can be described thus: Potentiation of hypnotics (infrahypnotic sodium pentobarbital). Format: in vivo. As to conditions: mice, oral 50 mg/kg, thirty minutes prior to i.p. infrahypnotic sodium pentobarbital. The procedure: In addition, the compounds of the formula (I) potentiate very markedly the effect of hypnotics. Indeed, on oral administration to different groups of mice, at a dosage of 50 mg/kg, thirty minutes prior to intraperitoneal injection of an infrahypnotic dosage of sodium pentobarbital, they produce, with respect to the untreated reference animals, a marked potentiation of the barbiturate.

The subject of assay [3] is collagen-induced blood-platelet aggregation. The assay can be described thus: Collagen-induced blood-platelet aggregation (plasma of orally treated rats). The assay is classed as in vivo, rats of Wistar strain. As to conditions: Rattus norvegicus, oral 100 mg/kg, 3 hours after treatment, collagen (bovine tendon extract), read-out: Percent inhibition of blood-platelet aggregation, Collagen. As to the method: (§1) A blood sample is taken from the jugular vein of rats of Wistar strain. From this citrated blood, and after centrifugation, is reconstituted a plasma containing 600,000 ± 20,000 platelets per mm^3 which will be used in all aggregation determinations. 0.4 ml plasma is placed in a siliconized tube provided with a magnetic bar, which is also siliconized. The tube is introduced into an aggregometer connected with an optical density variation recorder. When light transmission has reached a stable value, 0.5 ml of a solution containing 10 μM A.D.P. (adenosine-diphosphate) are introduced in the tube. Blood-platelet aggregation then induces an increase of light transmission followed by a decrease subsequent to the deaggregation phase. The thus determined maximum variation of optical density characterizes the intensity of the aggregation. (b) Determination of collagen-induced blood-platelet aggregation The A.D.P. solution is substituted with a collagen solution (bovine tendon extract). Different groups of 20 rats are used, each group being administered orally a test derivative, at a dosage of 100 mg/kg. The results obtained in the course of tests a) and b) are tabulated in following Table I which indicates the percent inhibition of blood-plateletaggregation obtained, with respect to the control, 3 hours after treatment.

Assay [4] has as its system A.D.P.-induced blood-platelet aggregation. The assay can be described thus: A.D.P.-induced blood-platelet aggregation (plasma of orally treated rats). The assay is classed as in vivo, rats of Wistar strain. Conditions: Rattus norvegicus, oral 100 mg/kg, 3 hours after treatment, 10 μM A.D.P., read-out: Percent inhibition of blood-platelet aggregation, A.D.P. The procedure:
as §1, with “determinations. (a) Determination of A.D.P.-induced blood-platelet aggregation” for “determinations.”, “aggregation.” for “aggregation. (b) Determination of collagen-induced blood-platelet aggregation The A.D.P. solution is substituted with a collagen solution (bovine tendon extract).”

In assay [5] the test system is ovalbumin-induced systemic edema. The assay can be described thus: Ovalbumin-induced systemic edema method. The assay is classed as in vivo. Conditions: Rattus norvegicus, rats, oral 100 mg/kg one hour prior to and simultaneously with ovalbumin. The procedure: (b) Ovalbumin-induced systemic edema method Rats are administered a simultaneous intraperitoneal injection of 1 ml ovalbumin and 0.5 ml of a 1% aqueous Evans Blue solution. The animals of the treated group are additionally administered orally 100 mg/kg of the test derivative, one hour prior to and simultaneously with said ovalbumin administration. The intensity of the phenomenon thus induced is scored according to a scale from 1 to 5, according to the progress of the inflammatory syndrome. Thus are determined with respect to the control group the mean intensity and the percent decrease of the edema reaction, as a function of time. The percent anti-inflammatory activity obtained 2 hours and 3 hours, respectively, after ovalbumin injection, is tabulated in following Table III: […]

With `CCOC(=O)c1sc2c(c1O)CN(C(=O)OCC)CC2` [Derivative n°11, 2,5-Diethoxycarbonyl-3-hydroxy-4,5,6,7-tetrahydro-thieno[3,2-c]pyridine], the inhibition in vivo at 100 mg/kg in assay [1] (1 hour after carrageenin, read-out: Percent anti-inflammatory activity after 1 hour) is 40%; in assay [1] (2 hours after carrageenin, read-out: Percent anti-inflammatory activity after 2 hours), 46%; in assay [1] (3 hours after carrageenin, read-out: Percent anti-inflammatory activity after 3 hours) it was 49%; in assay [1] (5 hours after carrageenin, read-out: Percent anti-inflammatory activity after 5 hours), 53%; in assay [3] it was 91%; in assay [4] it was 62.1%. Also, the inhibition in vivo at 100 mg/kg in assay [5] (2 hours after ovalbumin injection, read-out: Percent anti-inflammatory activity after 2 hours) worked out at 51%; in assay [5] (3 hours after ovalbumin injection, read-out: Percent anti-inflammatory activity after 3 hours), 61%. Besides, in assay [2], the “percent animals put to sleep” value amounted to 60%.
